Each structure is given as a SMILES string.

Chain of human NaV1.6 (hNaV1.6) (Q9UQD0 whole entry): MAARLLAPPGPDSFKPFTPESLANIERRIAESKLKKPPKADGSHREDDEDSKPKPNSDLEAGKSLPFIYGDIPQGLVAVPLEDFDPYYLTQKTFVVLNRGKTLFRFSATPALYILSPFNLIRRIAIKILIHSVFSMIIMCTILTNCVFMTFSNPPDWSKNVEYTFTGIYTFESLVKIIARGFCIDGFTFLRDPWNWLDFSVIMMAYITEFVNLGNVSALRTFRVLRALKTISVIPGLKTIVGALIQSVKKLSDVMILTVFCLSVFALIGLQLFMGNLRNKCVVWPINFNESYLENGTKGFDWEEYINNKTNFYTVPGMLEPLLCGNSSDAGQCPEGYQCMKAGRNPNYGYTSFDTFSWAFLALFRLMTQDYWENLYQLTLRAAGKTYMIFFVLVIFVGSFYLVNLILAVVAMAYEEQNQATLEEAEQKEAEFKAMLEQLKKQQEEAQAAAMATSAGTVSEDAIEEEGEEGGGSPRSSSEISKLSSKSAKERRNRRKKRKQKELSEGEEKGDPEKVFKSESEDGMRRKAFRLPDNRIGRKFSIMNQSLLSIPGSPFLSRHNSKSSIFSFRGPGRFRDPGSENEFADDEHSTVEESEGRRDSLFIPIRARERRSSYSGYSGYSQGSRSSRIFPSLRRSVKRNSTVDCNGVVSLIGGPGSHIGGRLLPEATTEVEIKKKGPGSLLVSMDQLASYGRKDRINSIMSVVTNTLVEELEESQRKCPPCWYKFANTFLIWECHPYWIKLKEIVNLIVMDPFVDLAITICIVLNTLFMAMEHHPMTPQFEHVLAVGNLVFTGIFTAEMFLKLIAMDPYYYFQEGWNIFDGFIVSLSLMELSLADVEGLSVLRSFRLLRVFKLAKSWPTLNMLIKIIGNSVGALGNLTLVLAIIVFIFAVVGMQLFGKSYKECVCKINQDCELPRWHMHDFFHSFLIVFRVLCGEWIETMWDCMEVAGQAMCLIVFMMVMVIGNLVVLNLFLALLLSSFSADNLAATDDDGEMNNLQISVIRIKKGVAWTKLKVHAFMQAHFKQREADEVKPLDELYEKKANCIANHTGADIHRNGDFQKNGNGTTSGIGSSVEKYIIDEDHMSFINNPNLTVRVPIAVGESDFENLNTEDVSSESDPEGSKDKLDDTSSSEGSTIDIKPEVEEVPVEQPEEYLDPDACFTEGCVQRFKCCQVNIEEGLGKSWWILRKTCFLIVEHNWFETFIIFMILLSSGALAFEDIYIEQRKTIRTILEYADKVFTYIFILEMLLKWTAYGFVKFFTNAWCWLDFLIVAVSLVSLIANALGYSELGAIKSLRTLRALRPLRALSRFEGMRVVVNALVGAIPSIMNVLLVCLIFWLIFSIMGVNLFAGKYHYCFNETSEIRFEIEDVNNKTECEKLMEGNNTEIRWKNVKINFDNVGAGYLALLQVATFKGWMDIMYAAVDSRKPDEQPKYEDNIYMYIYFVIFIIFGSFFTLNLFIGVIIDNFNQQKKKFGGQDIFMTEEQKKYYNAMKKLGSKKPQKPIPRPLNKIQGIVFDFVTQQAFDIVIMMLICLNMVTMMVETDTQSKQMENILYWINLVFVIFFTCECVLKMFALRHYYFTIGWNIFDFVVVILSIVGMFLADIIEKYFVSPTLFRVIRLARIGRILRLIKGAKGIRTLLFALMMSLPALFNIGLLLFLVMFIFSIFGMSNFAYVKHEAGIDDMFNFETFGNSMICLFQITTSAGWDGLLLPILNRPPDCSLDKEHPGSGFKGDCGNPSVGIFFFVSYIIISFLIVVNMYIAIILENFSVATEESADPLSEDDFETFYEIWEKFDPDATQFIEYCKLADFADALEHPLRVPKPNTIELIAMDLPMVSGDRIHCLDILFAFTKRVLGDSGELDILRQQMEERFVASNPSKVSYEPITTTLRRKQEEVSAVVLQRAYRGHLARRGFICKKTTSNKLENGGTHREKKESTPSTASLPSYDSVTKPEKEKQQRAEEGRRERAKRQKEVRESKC

The first assay concerns the target human NaV1.6 (hNaV1.6) (Homo sapiens (Human), UniProt Q9UQD0). In words: INaL inhibition at hNaV1.6, PatchXpress electrophysiology. Conditions: 1 μM; HEK-293 cells expressing hNaV1.6; late current evoked by 300 nM ATX-II. It is filed as cell-based. The procedure: Functional characterization of exemplary compounds to modulate INaL expressed by the Nay 1.6 voltage-gated sodium channel was accomplished using the PatchXpress™ high throughput electrophysiology platform (Molecular Devices, Sunnyvale, Calif.). HEK-293 cells expressing recombinant, human NaV1.6 (hNaV1.6) were grown in DMEM/high-glucose Dulbecco's modified, 10% FBS, 2 mM sodium pyruvate, 10 mM HEPES and 400 μg/mL G418. Cells were grown to 50%-80% confluency prior to harvesting. […] The onboard liquid handling facility of the PatchXpress was used for dispensing cells and applying test compounds. Nay late currents were evoked by the application of 300 nM ATX-II. […] INaL amplitude and stability were determined by analyzing the mean current amplitude over the final 20 ms of the test pulse. […] Percent steady-state inhibition of INaL was calculated as: [(INaL_compound)/(INaL_control)]*100, where INaL_compound and INaL_control represent INaL recorded in the presence or absence of compound, respectively.
On to `C[C@@H](Oc1ncc(-c2cn3c(C(F)F)nnc3cn2)cc1F)C(F)(F)F` [Compound 134], for which the “INaL v1.6 (1 μM, % Inhibition)” value is “C (inhibition of greater than 70%)”.

The assay is the same for the next values; noted with them: HEK293, read-out: INaL v1.6 (1 μM, % Inhibition).
Consider `FC(F)(F)Oc1ccc(-c2cn3c(C4CCOCC4)nnc3cn2)cc1` [Compound 145], for which the inhibition at 1 µM was below 30%.

Staying with this assay, now noted: HEK293; 1 μM; HEK-293 cells expressing hNaV1.6; late current evoked by 300 nM ATX-II; read-out: INaL v1.6 (1 μM, % Inhibition).
For the compound `CC(Oc1ncc(-c2cn3c(C(F)(F)F)nnc3cn2)cc1F)C(F)(F)F` (stereo not drawn) [Compound 133], the inhibition at 1 µM is above 70%.

For `COCc1cc(OC(F)(F)F)ccc1-c1ccc2nnc(C(F)F)n2n1` [Compound 137], the inhibition at 1 µM lay within 30 to 70%.

Take `FC(F)Oc1ccc(-c2cn3c(C(F)F)nnc3cn2)cc1` [Compound 138]: the inhibition at 1 µM is below 30%.

For the compound `Cc1cc(-c2ccc(OC(F)(F)F)cc2)nn2c(C(F)(F)F)nnc12` [Compound 139, 8-methyl-6-[4-(trifluoromethoxy)phenyl]-3-(trifluoromethyl)-[1,2,4]triazolo[4,3-b]pyridazine], the inhibition at 1 µM was below 30%.

In the case of `Cc1cc2nnc(C(F)(F)F)n2nc1-c1ccc(OC(F)(F)F)cc1` [Compound 140, 7-methyl-6-[4-(trifluoromethoxy)phenyl]-3-(trifluoromethyl)-[1,2,4]triazolo[4,3-b]pyridazine], the inhibition at 1 µM lay in the range of 30 to 70%.

On to `COCc1cc(C(F)(F)F)ccc1-c1cn2c(C(F)F)nnc2cn1` [Compound 141], for which the inhibition at 1 µM fell in the range of 30 to 70%.

On to `COCc1cc(OC(F)(F)F)ccc1-c1cn2c(C(F)F)nnc2cn1` [Compound 142], for which the inhibition at 1 µM is above 70%.

Regarding `COCc1cc2nnc(C(F)(F)F)n2nc1-c1ccc(OC(F)(F)F)cc1` [Compound 143], the inhibition at 1 µM was below 30%.

Turning to `COCc1cc(-c2cn3c(C(F)F)nnc3cn2)ccc1OC(F)(F)F` [Compound 144], the inhibition at 1 µM is below 30%.

As to `COCc1cc(-c2ccc3nnc(C(F)F)n3n2)ccc1OC(F)(F)F` [Compound 146], the inhibition at 1 µM fell in the range of 30 to 70%.

On to `COc1nnc2cnc(-c3ccc(OC(F)(F)F)cc3)cn12` [Compound 148], for which the inhibition at 1 µM is below 30%.

As to `FC(F)(F)OCc1ccc(-c2cn3c(C(F)(F)F)nnc3cn2)cc1` [Compound 149], the inhibition at 1 µM is above 70%.

As for `FC(F)(F)COc1nnc2cnc(-c3ccc(OC(F)(F)F)cc3)cn12` [Compound 150], the inhibition at 1 µM is below 30%.

Consider `FC(F)(F)c1nnc2cnc(-c3ccc([C@H]4CC4(F)F)cc3)cn12` [Compound 151, 6-[4-[(1R)-2,2-difluorocyclopropyl]phenyl]-3-(trifluoromethyl)-[1,2,4]triazolo[4,3-a]pyrazine], for which the inhibition at 1 µM lay within 30 to 70%.

As for `FC(F)(F)c1nnc2cnc(-c3ccc([C@@H]4CC4(F)F)cc3)cn12` [Compound 152, 6-[4-[(1S)-2,2-difluorocyclopropyl]phenyl]-3-(trifluoromethyl)-[1,2,4]triazolo[4,3-a]pyrazine], the inhibition at 1 µM is above 70%.

For `COCc1cc(-c2cn3c(C(F)(F)F)nnc3cn2)ccc1C(F)(F)F` [Compound 157], the inhibition at 1 µM was in the range of 30 to 70%.

Take `COCc1cc(-c2ccc3nnc(C(F)(F)F)n3n2)ccc1C(F)(F)F` [Compound 158]: the inhibition at 1 µM fell in the range of 30 to 70%.

As for `COCc1cc(-c2ccc3nnc(C(F)F)n3n2)ccc1C(F)(F)F` [Compound 159], the inhibition at 1 µM was in the range of 30 to 70%.

For `FC(F)(F)Oc1ccc(-c2cn3c([C@H]4CCOC4)nnc3cn2)cc1` [Compound 160, 3-[(3R)-tetrahydrofuran-3-yl]-6-[4-(trifluoromethoxy)phenyl]-[1,2,4]triazolo[4,3-a]pyrazine], the inhibition at 1 µM was below 30%.

With `FC(F)(F)Oc1ccc(-c2cn3c([C@@H]4CCOC4)nnc3cn2)cc1` [Compound 161, 3-[(3S)-tetrahydrofuran-3-yl]-6-[4-(trifluoromethoxy)phenyl]-[1,2,4]triazolo[4,3-a]pyrazine], the inhibition at 1 µM was below 30%.

Regarding `FC(F)(F)Oc1ccc(-c2nn3c(C(F)(F)F)nnc3cc2Cl)cc1` [Compound 162, 7-chloro-6-[4-(trifluoromethoxy)phenyl]-3-(trifluoromethyl)-[1,2,4]triazolo[4,3-b]pyridazine], the inhibition at 1 µM was above 70%.

Regarding `COCc1cc(-c2ccc(OC(F)(F)F)cc2)nn2c(C(F)(F)F)nnc12` [Compound 163], the inhibition at 1 µM is below 30%.

As for `FC(F)c1nnc2ccc(-c3ccc([C@H]4CC4(F)F)cc3)nn12` [Compound 164, 6-[4-[(1R)-2,2-difluorocyclopropyl]phenyl]-3-(difluoromethyl)-[1,2,4]triazolo[4,3-b]pyridazine], the inhibition at 1 µM was 30 to 70%.

`FC(F)c1nnc2ccc(-c3ccc([C@@H]4CC4(F)F)cc3)nn12` [Compound 165, 6-[4-[(1S)-2,2-difluorocyclopropyl]phenyl]-3-(difluoromethyl)-[1,2,4]triazolo[4,3-b]pyridazine]: the inhibition at 1 µM was above 70%.

In the case of `FC(F)c1nnc2cnc(-c3ccc([C@H]4CC4(F)F)cc3)cn12` [Compound 166, 6-[4-[(1R)-2,2-difluorocyclopropyl]phenyl]-3-(difluoromethyl)-[1,2,4]triazolo[4,3-a]pyrazine], the inhibition at 1 µM fell in the range of 30 to 70%.

`FC(F)c1nnc2cnc(-c3ccc([C@@H]4CC4(F)F)cc3)cn12` [Compound 167, 6-[4-[(1S)-2,2-difluorocyclopropyl]phenyl]-3-(difluoromethyl)-[1,2,4]triazolo[4,3-a]pyrazine]: the inhibition at 1 µM was in the range of 30 to 70%.

For the compound `Cc1nc(-c2ccc(OC(F)(F)F)cc2)cn2c(C(F)(F)F)nnc12` [Compound 168, 8-methyl-6-[4-(trifluoromethoxy)phenyl]-3-(trifluoromethyl)-[1.2.4]triazolo[4,3-a]pyrazine], the inhibition at 1 µM was in the range of 30 to 70%.

With `OCc1ccc(-c2ccc3nnc(C(F)F)n3n2)cc1` [Compound 169, [4-[3-(difluoromethyl)-[1,2,4]triazolo[4,3-b]pyridazin-6-yl]phenyl]methanol], the inhibition at 1 µM is below 30%.

In the case of `COCc1ccc(-c2cn3c(C(F)F)nnc3cn2)cc1` [Compound 170], the inhibition at 1 µM was below 30%.

With `COCc1ccc(-c2ccc3nnc(C(F)F)n3n2)cc1` [Compound 171], the inhibition at 1 µM was below 30%.

In the case of `OCc1ccc(-c2cn3c(C(F)F)nnc3cn2)cc1` [Compound 172, [4-[3-(difluoromethyl)-[1,2,4]triazolo[4,3-a]pyrazin-6-yl]phenyl]methanol], the inhibition at 1 µM is below 30%.

For `COCc1cc(-c2cn3c(C(F)(F)F)nnc3cn2)ccc1OC(F)(F)F` [Compound 173], the inhibition at 1 µM was in the range of 30 to 70%.

On to `Cc1cc(OC2CC(F)(F)C2)ccc1-c1cn2c(C(F)(F)F)nnc2cn1` [Compound 174], for which the inhibition at 1 µM is 30 to 70%.

With `Fc1ccc(-c2nnc3cnc(-c4cnc(OCC(F)(F)F)c(F)c4)cn23)cc1` [Compound 175], the inhibition at 1 µM is above 70%.

Regarding `Nc1cc(-c2ccc(OC(F)(F)F)cc2)nn2c(C(F)(F)F)nnc12` [Compound 176, 6-[4-(trifluoromethoxy)phenyl]-3-(trifluoromethyl)-[1,2,4]triazolo[4,3-b]pyridazin-8-amine], the inhibition at 1 µM is below 30%.

On to `CC(=O)Nc1cc(-c2ccc(OC(F)(F)F)cc2)nn2c(C(F)(F)F)nnc12` [Compound 177], for which the inhibition at 1 µM was below 30%.

Consider `FC(F)c1nnc2cnc(-c3ccc(OC4CC(F)(F)C4)cc3)cn12` [Compound 178], for which the inhibition at 1 µM fell in the range of 30 to 70%.

With `FC(F)(F)COc1ccc(-c2cn3c(C(F)(F)F)nnc3cn2)cn1` [Compound 179], the inhibition at 1 µM lay within 30 to 70%.

Take `COCc1ccc(-c2cn3c(C(F)(F)F)nnc3cn2)cc1` [Compound 180]: the inhibition at 1 µM is below 30%.

As to `O=C(O)c1cc(-c2ccc(OC(F)(F)F)cc2)nn2c(C(F)(F)F)nnc12` [Compound 181, 6-[4-(trifluoromethoxy)phenyl]-3-(trifluoromethyl)-[1,2,4]triazolo[4,3-b]pyridazine-8-carboxylic acid], the inhibition at 1 µM was below 30%.

For the compound `NC(=O)c1cc(-c2ccc(OC(F)(F)F)cc2)nn2c(C(F)(F)F)nnc12` [Compound 183], the inhibition at 1 µM is below 30%.

With `O=C(O)c1cc2nnc(C(F)(F)F)n2nc1-c1ccc(OC(F)(F)F)cc1` [Compound 184, 6-[4-(trifluoromethoxy)phenyl]-3-(trifluoromethyl)-[1,2,4]triazolo[4,3-b]pyridazine-7-carboxylic acid], the inhibition at 1 µM is below 30%.

Take `OCc1cc(-c2ccc(OC(F)(F)F)cc2)nn2c(C(F)(F)F)nnc12` [Compound 186]: the inhibition at 1 µM is below 30%.

With `Fc1cc2nnc(C(F)(F)F)n2nc1-c1ccc(OC(F)(F)F)cc1` [Compound 187], the inhibition at 1 µM is above 70%.

As for `Fc1ccc(Oc2nnc3cnc(-c4cnc(OCC(F)(F)F)c(F)c4)cn23)cc1` [Compound 188], the inhibition at 1 µM was 30 to 70%.

On to `FC(F)(F)Oc1ccc(-c2cc(Cl)c3nnc(C(F)(F)F)n3n2)cc1` [Compound 189], for which the inhibition at 1 µM was below 30%.

On to `Nc1cc2nnc(C(F)(F)F)n2nc1-c1ccc(OC(F)(F)F)cc1` [Compound 190, 6-[4-(trifluoromethoxy)phenyl]-3-(trifluoromethyl)-[1,2,4]triazolo[4,3-b]pyridazin-7-amine], for which the inhibition at 1 µM is below 30%.

On to `CC(=O)Nc1cc2nnc(C(F)(F)F)n2nc1-c1ccc(OC(F)(F)F)cc1` [Compound 191], for which the inhibition at 1 µM is below 30%.

As for `COCc1nc(-c2ccc(OC(F)(F)F)cc2)cn2c(C(F)(F)F)nnc12` [Compound 192], the inhibition at 1 µM is below 30%.

One may read the inhibition as the change of the read-out against control, counted positive when it falls.

For the origin of these results see patent US11629146B2, “Substituted [1,2,4]triazolo[4,3-a]pyrazines as modulators of sodium channel activity” (Praxis Precision Medicines, Inc., priority 2016, dated 2023).
